Reference: patent US4644012A, “Treatment for osteoporosis” (Takeda Chemical Industries, Ltd., priority 1983, dated 1987)
Ends that are not written are not given here.

Assays:
Sprague-Dawley rats = conditions: rat, in vivo
Method: (§1) Five-week-old ICR mice and 5-week-old Sprague-Dawley rats were used in groups of 10 males and 10 females, and suspensions of compound A or compound B in olive oil were administered orally [2,500, 5,000 and 10,000 mg/kg of each compound] or subcutaneously [1,250, 2,500 and 5,000 mg/kg]. The animals were kept under observation for 14 days.

ICR mice = conditions: mouse, in vivo
Method: as §1

rat fetal long bone [1] = assay: Bone resorption inhibiting activity in rat fetal long bone culture (45Ca release); type: cell-based, Sprague-Dawley rat; conditions: 3 days
Method: Bone resorption inhibiting activity of 7-(1-hydroxycarbonylethyl)oxy-3-phenyl-4H-1-benzopyran-4-one (hereinafter referred to as "compound A") in rat fetal long bone culture
(§2) Determination of bone resorption was performed by the method of Raisz [J. Clin. Invest. 44, 103-116 (1965)]. Thus, a Sprague-Dawley rat on the 19th day of pregnancy was subcutaneously injected with 50μ Ci of ^45 Ca (isotope of calcium, CaCl2 solution), and was laparotomized on the following day. The embryos were aseptically taken out, the forelimbs (radius and ulna) were cut off from the trunk under a binocular dissecting microscope, and the connective tissue and cartilage were removed as much as possible to prepare bone samples. Each bone sample was preincubated at 37° C. for 24 hours in 0.6 ml of the medium containing 2 mg/ml of bovine serum albumin in BGJb medium (Fitton-Jackson modification) [GIBCO Laboratories, Grand Island, N.Y. 14072 U.S.A.]. Then, the sample was further incubated for 3 days in the same medium as above in which 10 μg/ml of compound A had been incorporated. Then, the radioactivity of ^45 Ca in the medium and that of ^45 Ca in the bone were measured and the percentage (%) of ^45 Ca released from the bone into the medium was calculated by the following formula. [formula]
As control, the bones of the embryos from the same litter were similarly incubated in the absence of compound A for 3 days.

rat fetal long bone [2] = assay: Potentiating effect on the bone resorption inhibiting action of calcitonin, PTH-stimulated rat fetal long bone culture (45Ca release); type: cell-based, Sprague-Dawley rat; conditions: for potentiation of the inhibitory action of calcitonin on PTH-stimulated bone resorption (in words): calcitonin 3 mU/ml, compound 25 μg/ml
Method: as §2
Potentiating effect of 7-(1-hydroxycarbonylethyl)-oxy-3-(4-hydroxyphenyl)-4H-1-benzopyran-4-one (hereinafter referred to as "compound B") and 7-(1-ethoxycarbonylethyl)-oxy-3-phenyl-4H-1-benzopyran-4-one (hereinafter referred to as "compound C") on the bone resorption inhibiting action of calcitonin in rat fetal long bone culture
The bone samples prepared in the same manner as Test Example 1 were preincubated for 24 hours in the same medium as that prepared in Test Example 1, which contains bovine serum albumin in BGJb medium (Fitton-Jackson modification). Then, in the concomitant presence of PTH (parathyroid hormone, a bone resorption stimulant), calcitonin and compound B or compound C, the samples were further incubated for 3 days and the percentage of ^45 Ca released into the medium was calculated by means of the same formula as that in Test Example 1. […]

Molecule	LD50 (Sprague-Dawley rats)	LD50 (ICR mice)	suppression of bone resorption (in words) (rat fetal long bone [1]; 10 μg/ml)	45Ca (%) released (rat fetal long bone [1]; compound 10 μg/ml, 37° C, mean ± standard deviation, six bones, control 23.6 ± 3.9, * p < 0.05 vs control)	potentiation of the inhibitory action of calcitonin on PTH-stimulated bone resorption (in words) (rat fetal long bone [2])	45Ca (%) released (rat fetal long bone [2]; control II group: PTH + calcitonin 3 mU/ml, no compound, 3 days, PTH alone (control I) 39.7 ± 1.5)
CC(Oc1ccc2c(=O)c(-c3ccccc3)coc2c1)C(=O)O (stereo not drawn) [compound A, 7-(1-hydroxycarbonylethyl)oxy-3-phenyl-4H-1-benzopyran-4-one]	could not be calculated	could not be calculated	suppressed bone resorption	18.5 ± 2.2%		
CC(Oc1ccc2c(=O)c(-c3ccc(O)cc3)coc2c1)C(=O)O (stereo not drawn) [compound B, 7-(1-hydroxycarbonylethyl)-oxy-3-(4-hydroxyphenyl)-4H-1-benzopyran-4-one]	could not be calculated	could not be calculated			potentiated the inhibitory action of calcitonin on PTH-stimulated bone resorption	
CCOC(=O)C(C)Oc1ccc2c(=O)c(-c3ccccc3)coc2c1 (stereo not drawn) [compound C, 7-(1-ethoxycarbonylethyl)-oxy-3-phenyl-4H-1-benzopyran-4-one]					potentiated the inhibitory action of calcitonin on PTH-stimulated bone resorption	
calcitonin: calcitonin, bone resorption inhibitor used with PTH in control II group (CGNLSTCMLGTYTQDFNKFHTFPQTAIGVGAP; ends and bridges not checked; cysteine pairing not given here; UniProt P01258 85-116, looked up) [reference compound]						35.9 ± 4.9%
